{
  "source": "patent US10561638B2",
  "about": "“Methods for treating dependence” (Biotie Therapies, Inc., priority 2007, dated 2020)",
  "key": {"[1]": {"experiment": "Phase I single- and multiple-dose studies in healthy men", "assay_type": "in vivo, human"}, "[2]": {"tested_on": "plasma noradrenaline, dopamine and epinephrine", "experiment": "Plasma catecholamines in beagle dogs, 2 mg/kg b.i.d. for 15 days", "assay_type": "in vivo", "description": "Male beagle dogs were randomized to be orally dosed with either empty capsules (control) or nepicastat (2 mg·kg^−1, po, b.i.d.) for 15 days. Daily venous blood samples were drawn, six hours after the first dose, for measurement of plasma concentrations of dopamine and noradrenaline. The samples were collected in tubes containing heparin and glutathione, centrifuged at −4° C. and the separated plasma was stored at −70° C. until analysis. […] When compared to the control group, nepicastat (2 mg·kg^−1, b.i.d, po) produced significant decreases in plasma concentrations of noradrenaline and increases in plasma concentrations of dopamine and dopamine/noradrenaline ratio.\nThe chronic effects of nepicastat (14.5 day treatment) on the plasma DA/NE ratio were investigated in normal dogs. Animals were randomized to receive, orally, either placebo (empty capsule) or nepicastat (2 mg/kg, b.i.d) for 14.5 days. Daily blood samples were drawn, 6 h after the first dose, for the measurement of plasma concentrations of DA and NE. The samples were collected in tubes containing heparin and glutathione, centrifuged at −4° C. and stored at −70° C. until analysis.\nMale Beagle dogs (Marshall farms, North Rose, N.Y.) weighing between 9-16 kg were used in the study. The animals were allowed water ad libitum and given food once daily at ˜10.00 AM. Animals were randomly assigned to one of the following treatment groups (n=8/group): placebo (empty capsule), or nepicastat at 2 mg/kg b.i.d (4 mg/kg/day). Each animal received 2 doses daily, morning and afternoon (8-10 hours apart). Daily blood samples (10 ml) were drawn 6 h after the AM dose for measurement of plasma levels of nepicastat and catecholamines. The blood was collected in tubes containing heparin and glutathione and centrifuged at −4° C. within 1 h of collection. The plasma was separated and divided into two samples, one for the measurement of plasma catecholamines and the other for analysis of nepicastat.\nPlasma norepinephrine (NE), dopamine (DA) and epinephrine (EPI) were analyzed by HPLC using electrochemical detection. Plasma concentration of nepicastat was determined by HPLC using electrochemical detection.\nThe BQL (below quantitation limit) in the DA concentration of dog 1 at day 10 was set to 0; 1n (0) was set to missing. The analysis was performed using a mixed model (using PROC MIXED) with the day and treatment categorical variables being fixed and the dog within treatment being a random factor. For the fixed effects, the interaction between the day and the treatment was included, since the difference between the drug and placebo groups varies from day to day. Contrasts were calculated using the CONTRAST statement, which correctly takes into account the error terms for each particular contrast. In particular, the contrasts comparing the treatment group to the […] uses the dog mean square for its error term, while the comparisons used to establish steady state are all within dog comparisons, and require the error mean square.\nThe time period of steady state was calculated using the Helmert transformation (cf. SAS PROC GLM manual). These transformations compare each treatment mean with the average of the treatment means of the time points following. The steady state period is defined to start at the first time point following the maximum time at which the Helmert contrast is statistically significant. However, since this method can fail to detect a smoothly changing process, as appears might be the case here, the slope of the analyte concentration during the steady state period also was calculated. The slope during the steady state period was calculated for each dog individually, yielding one slope per animal. Univariate statistics on the slopes were then calculated, with Normal theory confidence intervals built on the mean slope, and the hypothesis of slope equaling zero was tested, and its Normal theory p-value was calculated. […]"}, "[3]": {"tested_on": "plasma renin activity", "experiment": "Plasma renin activity in SHRs", "assay_type": "in vivo, spontaneously hypertensive rats", "details": "30 and 100 mg/kg/d p.o. for 5 days", "source_text": "The potency relationships in the left ventricle and mesenteric artery resulting from these in vivo studies strongly parallel those obtained from in vitro studies using purified DBH (see above). […] It was therefore of interest to assess whether decreasing norepinephrine levels with nepicastat would result in a decrease in plasma renin activity."}},
  "data": [
    {"smiles": "Cl.NCc1c[nH]c(=S)n1[C@H]1CCc2c(F)cc(F)cc2C1", "note": "[nepicastat, (S)-5-Aminomethyl-1-(5,7-difluoro-1,2,3,4-tetrahydronaphth-2-yl)-2,3-dihydro-2-thioxo-1H-imidazole hydrochloride]", "values": [
      {"measurement": "subjects who developed a rash", "setting": "[1]; 200 mg for 8 days or longer", "result": "Five of the 6 subjects"},
      {"measurement": "tolerability, multiple-dose Phase I study", "setting": "[1]; 5 and 40 mg, healthy men", "result": "generally well tolerated"},
      {"measurement": "effect on mood, sleep, cognition", "setting": "[1]; 5 or 40 mg", "result": "no significant impairment of mood, sleep, or cognition"},
      {"measurement": "tolerability, single-dose Phase I studies", "setting": "[1]; 5 to 800 mg, healthy men", "result": "generally well tolerated"},
      {"measurement": "cardiac adverse event in one subject", "setting": "[1]; after 6 days of dosing with 200 mg", "result": "atrial arrhythmias and intermittent right bundle branch block"},
      {"measurement": "day of peak decrease in plasma EPI", "setting": "[2]", "result": 8, "unit": "days"},
      {"measurement": "day of peak decrease in plasma NE", "setting": "[2]", "result": 6, "unit": "days"},
      {"measurement": "day of peak increase in plasma DA", "setting": "[2]", "result": 7, "unit": "days"},
      {"measurement": "day of peak increase in plasma DA/NE ratio", "setting": "[2]", "result": 6, "unit": "days"},
      {"measurement": "days of dosing until decrease in plasma noradrenaline attained significance", "setting": "[2]", "result": 4, "unit": "days"},
      {"measurement": "decrease in plasma EPI vs placebo", "setting": "[2]", "result": 1.91, "unit": "fold"},
      {"measurement": "decrease in plasma NE vs placebo", "setting": "[2]", "result": 2.1, "unit": "fold"},
      {"measurement": "increase in plasma DA vs placebo", "setting": "[2]", "result": 7.5, "unit": "fold"},
      {"measurement": "increase in plasma DA/NE ratio vs placebo", "setting": "[2]", "result": 13.6, "unit": "fold"},
      {"measurement": "time of peak effect on plasma DA/NE ratio", "setting": "[2]", "result": "6 to 7", "unit": "days"},
      {"measurement": "time to steady-state of effect on plasma DA", "setting": "[2]", "result": "~8", "unit": "days post-dose"},
      {"measurement": "time to steady-state of effect on plasma EPI", "setting": "[2]", "result": "~6", "unit": "days post-dose"},
      {"measurement": "time to steady-state of effect on plasma NE", "setting": "[2]", "result": "approximately 4 days post-dose"},
      {"measurement": "plasma renin activity", "setting": "[3]", "result": "did not alter plasma renin activity"}
    ]}
  ]
}
